Experimental data: patent US20070184490A1, “Neuronal nicotinic receptor ligands and their use” (priority 2006, published 2007)

Assays:
[1] = Phase 1 multiple dose human study; type: in vivo; details: 5 to 40 mg twice daily
adults with ADHD = experiment: pilot crossover study in adults with ADHD: CAARS, CGI-ADHD-S, HAM-A, HAM-D; type: in vivo, human
Text: In addition to the primary outcome, the Conner's Adult ADHD Rating Scale (CAARS), secondary rating scales, neuropsychological, and safety assessments were completed. Results: A total of 11 adults with well-characterized ADHD completed this crossover study. […] On the clinical efficacy endpoints, CAARS Total Symptom Score and CAARS Hyperactive/Impulsive score, a shallow inverted V-shaped dose-response curve was observed. However, the dose-response curve for attention and memory effects as measured by computerized cognitive testing seemed dose-linear. No clinically meaningful findings in safety assessments or side effect profile were observed.
Subjects between 18 and 60 years old who met the DSM-IV-TR criteria for ADHD as assessed by clinical interview and confirmed by the Washington University in St. Louis Kiddie Schedule for Affective Disorders and Schizophrenia (WASH-U-KSADS) diagnostic criteria for ADHD (Orvaschel 1985) (Geller et al 1998) were eligible for inclusion in the study. Furthermore, a score of ≧2 on at least six of nine items in at least one of the subscales of the Conner's Adult ADHD Rating Scale (CAARS) (Conners et al 1999) at screening and Day 1 and a score of ≧4 (i.e., at least moderate severity) on the Clinical Global Impressions-ADHD Severity (CGI-ADHD-S) test (Guy 1976) at screening were required. Exclusion criteria consisted of: smoker or user of nicotine product(s) in the three months prior to enrollment; clinically significant chronic medical conditions; current diagnosis or history of schizoaffective or bipolar disorder, obsessive-compulsive disorder, schizophrenia, or other psychotic disorder; current depression requiring treatment; serious homicidal or suicidal ideation; abnormal baseline laboratory values; drug or alcohol abuse/dependence within the last three months; current use of psychotropics or stimulants; and pregnant or lactating women. The following institutional review boards at Quorum IRB in Seattle, Wash., The Human Research Committee at the Lawrence House in Boston, Mass., the Institutional Board of Research Associates at the NYU School of Medicine in New York, N.Y., the New York Campus, Va. NY Harbor Healthcare Systems Subcommittee for human subjects, research and development subcommittee, and research safety subcommittee in New York, N.Y., the University of Vermont Committee on Human Research in Burlington, Vt., the Scientific Advisory Committee of Burlington, Vt., and the University of Chicago Hospitals IRB in Chicago, Ill. approved the study protocol, and all subjects provided written, informed consent.
Following an initial two-week medication washout and screening period, subjects entered an eight-week double-blind treatment period. […] A study design schematic is provided below in Table 1.
Raters for the CAARS were trained and certified prior to the start of the study. Investigator-administered CAARS, CGI-ADHD-S, Hamilton Anxiety Scale (HAM-A) (Hamilton 1959), and Hamilton Depression Scale (HAM-D) (Hamilton 1960) were administered to subjects at baseline and at the completion of each treatment period (Days 14, 28, 42, and 56). CMRS, HAM-A, and HAM-D ratings were based on the previous seven days. After being trained, subjects completed a computerized cognitive assessment battery (Simpson et al 1989), which was amended to include the Conner's Continuous Performance Test (Conners 1995) and the Stroop Color Word Test (Jensen and Rohwer 1966), at baseline and at the completion of each treatment period. Attentional tasks (simple and choice reaction time, digit vigilance), selective attention (Conner's CPT), working memory tasks (numeric and spatial working memory, rapid visual information processing), episodic secondary memory (immediate and delayed word recall, word and picture recognition), motor control tasks (tracking), and executive function (the Stroop effect) were among the items assessed. […]

Cc1ncccc1OC[C@@H]1CCCN1 [ABT-089, 2-methyl-3-(2-(S)-pyrrolidinylmethoxy)pyridine]
tolerability [1]: well tolerated | Simple Reaction Time, a measure of attention ([1]; compared to placebo): significantly improved | Hyperactive/impulsive score improvement vs. placebo (adults with ADHD; 2 mg and 4 mg doses): ~20% | Inattentive score improvement versus placebo (adults with ADHD; 2 mg and 20 mg doses): approximately 11% | CAARS Hyperactive/Impulsive subscale, least square mean (±SE) (adults with ADHD; 2 mg bid): 13.8 (0.9) | CAARS Inattentive subscale, least square mean (±SE) (adults with ADHD; 2 mg bid): 18.3 (1.2) | CGI-ADHD-S mean score (adults with ADHD; 2 mg dose): 3.92 (0.20) | effect size, CAARS total symptom score vs placebo (adults with ADHD; 2 mg twice daily): 0.92 | CAARS Hyperactive/Impulsive subscale, least square mean (±SE) (adults with ADHD; 4 mg bid): 14.5 (0.9) | CAARS Inattentive subscale, least square mean (±SE) (adults with ADHD; 4 mg bid): 18.7 (1.2) | CGI-ADHD-S mean score (adults with ADHD; 4 mg dose): 4.09 (0.20) | effect size, CAARS total symptom score vs placebo (adults with ADHD; 4 mg twice daily): 0.76 | CAARS Hyperactive/Impulsive subscale, least square mean (±SE) (adults with ADHD; 20 mg bid): 15.4 (0.9) | CAARS Inattentive subscale, least square mean (±SE) (adults with ADHD; 20 mg bid): 18.1 (1.2) | CGI-ADHD-S mean score (adults with ADHD; 20 mg dose): 4.12 (0.20) | effect size, CAARS total symptom score vs placebo (adults with ADHD; 20 mg twice daily): 0.71 | effect on HAM-A or HAM-D scores (adults with ADHD; in vivo): no effect
